The values below come from US20040242525A1, “Method for promoting gonadal growth in an animal” (Nagoya University, priority 2003, published 2004).

Entries after “also recorded” stand apart in the source; their conditions may differ.

In data set [1] the test system is Japanese quail testis (gonadal growth). The data set is described as follows: IOP infusion, testicular growth under long-day condition. It counts as in vivo, Japanese quail (Coturnix coturnix japonica). Conditions: long-day condition (p<0.05). As for the experimental part: (§1) To assess directly whether T3 mediates photoperiodic response of gonads, the inventors studied the effect of intracerebroventricular (i.c.v.) infusion of T3 on gonadal growth. Vehicle and several doses of T3 and T4 were infused to third ventricle by osmotic mini pump and testicular size was measured before and after the infusion. […] Therefore, the inventors furthermore examined the effect of IOP infusion under long-day condition (FIG. 10b).

The test system is the same in data set [2]. As to the kind of experiment: intracerebroventricular infusion by osmotic mini pump, testicular growth under short-day condition. It counts as in vivo, Japanese quail (Coturnix coturnix japonica). The settings on record: for testicular growth: i.c.v. infusion to third ventricle, several doses, short-day condition (light 8 hrs, dark 16 hrs), male Japanese quail. As for the experimental part:
as §1

Data set [3] deals with Japanese quail gonadotropin release and gonadal growth. The settings on record: cited from earlier work; for photoperiodically induced gonadotropin secretion and gonadal growth: peripheral injection of pharmacological dose.
The conditions of data set [4]: cited from earlier work.

Consider `CCC(Cc1c(I)cc(I)c(N)c1I)C(=O)O` (stereo not shown) [IOP, lopanoic acid], for which the testicular growth result in data set [1] is “can reduce testicular growth; also recorded: reduces testicular growth”.

Regarding `N[C@@H](Cc1cc(I)c(Oc2cc(I)c(O)c(I)c2)c(I)c1)C(=O)O` [T4, Thyroxine], in data set [2], the testicular growth result was “little effect”. In addition, in data set [3], the “photoperiodically induced gonadotropin secretion and gonadal growth” value was “can mimic”. Besides, the “relative effectiveness to mimic gonadotropin release” value in data set [3] (peripheral injection) is on record as “more effective than T3”. Moreover, in data set [4], the “fraction of T4 converted to T3 in the blood” value was “about ⅓” and the “fraction of T4 converted to reverse T3 (RT3) in the blood” value is listed as ~45%.

`N[C@@H](Cc1cc(I)c(Oc2ccc(O)c(I)c2)c(I)c1)C(=O)O` [T3, 3,5,3′-triiodothyronine]: the testicular growth entry in data set [2] was “mimics testicular growth with dose dependent manner”. In addition, the “testicular growth at the largest dose” value in data set [2] (i.c.v. infusion, largest dose, short-day condition) is listed as “testicular growth was not observed”. Moreover, the “dose giving the greatest effect” value in data set [2] (intracerebroventricular administration to Japanese quail) is listed as 0.3 ng per day. Moreover, in data set [3], the “photoperiodically induced gonadotropin secretion and gonadal growth” value is “can mimic”.
